Patent US4563472A, “Iodoallyl and iodopropargyl substituted tetrazoles and anti-microbial compositions thereof” (Meiji Seika Kaisha, Ltd., priority 1982, dated 1986)
Converted amounts (≈) assume the structure as drawn. Where two headings read alike, the source gives them in different places.

What was measured:
[1] = tested on: Aspergillus fumigatus IAM 2621; assay: Antifungal Activity (in Industrial Field), MIC; type: cell-based; details: IAM2621, read-out: Minimal Inhibitory Conc. (MIC)
[2] = tested on: Aspergillus terreus PQMD 82 j; assay: Antifungal Activity (in Industrial Field), MIC; type: cell-based; details: PQMD82J, read-out: Minimal Inhibitory Conc. (MIC)
[3] = tested on: Trichophyton mentagrophytes; assay: Reducing culture positive rate of skin slices from infected guinea pigs; type: in vivo, guinea pigs (White Hartly-strain); design: concentration or dose not given beside the values; details: after 8 days application, non-treated 100
[4] = tested on: Pullularia pullulans IAM F-24; assay: Antifungal Activity (in Industrial Field), MIC; type: cell-based; details: IAMF24; Pullularia pullulans IAM F-24; read-out: Minimal Inhibitory Conc. (MIC)
Cochliobolus miyabeanus = assay: Antibacterial and Antifungal Activities (in Agricultural Field), MIC; type: cell-based; details: Bipolaris oryzae, read-out: Minimal Inhibitory Conc. (MIC)
[5] = tested on: Serratia marcescens MB-3848; assay: Antibacterial Activity (in medicinal field), MIC; type: cell-based; details: MB3848, read-out: Minimal Inhibitory Conc. (MIC)
[6] = tested on: Cladosporium herbarum IAM F-517; assay: Antifungal Activity (in Industrial Field), MIC; type: cell-based; details: IAMF517, read-out: Minimal Inhibitory Conc. (MIC)
[7] = tested on: Staphylococcus faecalis ATCC 8043; assay: Antibacterial Activity (in medicinal field), MIC; type: cell-based; details: ATCC8043, read-out: Minimal Inhibitory Conc. (MIC)
[8] = tested on: Aspergillus flavus ATCC 6275; assay: Antifungal Activity (in Industrial Field), MIC; type: cell-based; details: ATCC6275, read-out: Minimal Inhibitory Conc. (MIC)
[9] = tested on: Staphylococcus epidermidis ATCC 14990; assay: Antibacterial Activity (in medicinal field), MIC; type: cell-based
[10] = tested on: Xanthomonas campestris pv. citri; assay: Antibacterial and Antifungal Activities (in Agricultural Field), MIC; type: cell-based; details: read-out: Minimal Inhibitory Conc. (MIC)
Mucor spinescens IAM Mu3 = assay: Antifungal Activity (in Industrial Field), MIC; type: cell-based; details: IAMMU3, read-out: Minimal Inhibitory Conc. (MIC)
Phricularia oryzae = assay: Antibacterial and Antifungal Activities (in Agricultural Field), MIC; type: cell-based; details: read-out: Minimal Inhibitory Conc. (MIC)
[11] = tested on: Trichophyton metagrophytes 530324; assay: Antifungal Activity (in Medicinal Field), MIC; type: cell-based; details: Trichophyton metagrophytes 530324; read-out: Minimal Inhibitory Conc. (MIC)
[12] = tested on: Aspergillus fumigatus Saito; assay: Antifungal Activity (in Medicinal Field), MIC; type: cell-based; details: read-out: Minimal Inhibitory Conc. (MIC)
[13] = tested on: Corynebacterium michiganense; assay: Antibacterial and Antifungal Activities (in Agricultural Field), MIC; type: cell-based; details: Clavibacter michiganensis, read-out: Minimal Inhibitory Conc. (MIC)
[14] = tested on: Pseudomonas cepacia M-0527; assay: Antibacterial Activity (in medicinal field), MIC; type: cell-based; details: Burkholderia cepacia, M0527, read-out: Minimal Inhibitory Conc. (MIC)
[15] = tested on: Trichophyton interdigitale; assay: Antifungal Activity (in Medicinal Field), MIC; type: cell-based; details: read-out: Minimal Inhibitory Conc. (MIC)
Botrytis cinerea = assay: Antibacterial and Antifungal Activities (in Agricultural Field), MIC; type: cell-based; details: read-out: Minimal Inhibitory Conc. (MIC)
[16] = tested on: Cryptococcus neoformans Cr-1; assay: Antifungal Activity (in Medicinal Field), MIC; type: cell-based; details: CR1, read-out: Minimal Inhibitory Conc. (MIC)
Diaporithe citri = assay: Antibacterial and Antifungal Activities (in Agricultural Field), MIC; type: cell-based; details: read-out: Minimal Inhibitory Conc. (MIC)
Erwinia carotovora = assay: as above; type: cell-based; details: Pectobacterium carotovorum, read-out: Minimal Inhibitory Conc. (MIC)
[17] = tested on: Escherichia coli NIHJ JC-2; assay: Antibacterial Activity (in medicinal field), MIC; type: cell-based; details: NIHJJC2, read-out: Minimal Inhibitory Conc. (MIC)
[18] = tested on: Shigella sonnei EW 33 Type I; assay: Antibacterial Activity (in medicinal field), MIC; type: cell-based; details: EW33TYPEI, read-out: Minimal Inhibitory Conc. (MIC)
[19] = tested on: Chaetomium globosum ATCC 6205; assay: Antifungal Activity (in Industrial Field), MIC; type: cell-based; details: ATCC6205, read-out: Minimal Inhibitory Conc. (MIC)
Candida alubicans GA-24 = assay: Antifungal Activity (in Medicinal Field), MIC; type: cell-based; details: GA24; Candida alubicans GA-24; read-out: Minimal Inhibitory Conc. (MIC)
[20] = tested on: Penicillium luteum ATCC 9644; assay: Antifungal Activity (in Industrial Field), MIC; type: cell-based; details: Ascospirella lutea, ATCC9644, read-out: Minimal Inhibitory Conc. (MIC)
[21] = tested on: Fusarium oxysporum f. lycopersici; assay: Antibacterial and Antifungal Activities (in Agricultural Field), MIC; type: cell-based; details: read-out: Minimal Inhibitory Conc. (MIC)
[22] = tested on: Colletotrichum lagenarium; assay: as above; type: cell-based; details: Colletotrichum orbiculare, read-out: Minimal Inhibitory Conc. (MIC)
Alternaria kikuchiana = assay: as above; type: cell-based; details: read-out: Minimal Inhibitory Conc. (MIC)
[23] = tested on: Staphylococcus aureus 209P JC-1; assay: Antibacterial Activity (in medicinal field), MIC; type: cell-based; details: read-out: Minimal Inhibitory Conc. (MIC)
Proteus vulgaris OX-19 = assay: Antibacterial Activity (in medicinal field), MIC; type: cell-based; details: OX19, read-out: Minimal Inhibitory Conc. (MIC)
[24] = tested on: Pseudomonas syringae pv. tabaci; assay: Antibacterial and Antifungal Activities (in Agricultural Field), MIC; type: cell-based; details: read-out: Minimal Inhibitory Conc. (MIC)
[25] = tested on: Trichoderma T-1 ATCC 9645; assay: Antifungal Activity (in Industrial Field), MIC; type: cell-based; details: ATCC9645, read-out: Minimal Inhibitory Conc. (MIC)
Pellicularia filamentosa = assay: Antibacterial and Antifungal Activities (in Agricultural Field), MIC; type: cell-based; details: read-out: Minimal Inhibitory Conc. (MIC)
Gibberella fujikuroi = assay: as above; type: cell-based; details: Fusarium fujikuroi, read-out: Minimal Inhibitory Conc. (MIC)
[26] = tested on: Trichophyton mentagrophytes; assay: Therapeutic experiment on trichophytosis in guinea pigs, visual observation; type: in vivo, guinea pigs (White Hartly-strain); details: 1% preparation, 0.25 ml once per day, 8 consecutive days
[27] = tested on: Xanthomonas campestris pv. oryzae; assay: microbe, parasite or virus in culture; type: cell-based; details: read-out: Minimal Inhibitory Conc. (MIC)
Glomerella cingulata = assay: Antibacterial and Antifungal Activities (in Agricultural Field), MIC; type: cell-based; details: Colletotrichum gloeosporioides, read-out: Minimal Inhibitory Conc. (MIC)
[28] = tested on: Klebsiella pneumoniae PCI-602; assay: Antibacterial Activity (in medicinal field), MIC; type: cell-based; details: PCI602, read-out: Minimal Inhibitory Conc. (MIC)
[29] = Staphylococcus epidermidis, ATCC14990, read-out: Minimal Inhibitory Conc. (MIC)

SMILES: O=[N+]([O-])c1cn(CC(I)=C(I)I)c(Cl)c1Cl [1-(2',3',3'-triiodoallyl)-2,3-dichloro-4-nitropyrrole]
- MIC [1]: 25 µg/mL (≈ 41.8 µM)
- MIC [2]: 1.56 µg/mL (≈ 2.61 µM)
- Reducing Culture Positive Rate ([3]; 3 days culture): 0%
- Reducing Culture Positive Rate ([3]; 5 days culture): 16.7%
- Reducing Culture Positive Rate ([3]; 7 days culture): 16.7%
- MIC [4]: > 50 µg/mL
- MIC (Cochliobolus miyabeanus): 50 µg/mL (≈ 83.5 µM)
- MIC [5]: 6.25 µg/mL (≈ 10.4 µM)
- MIC [6]: 0.2 µg/mL (≈ 0.334 µM)
- MIC [7]: 31.2 µg/mL (≈ 52.1 µM)
- MIC [8]: 0.78 µg/mL (≈ 1.3 µM)
- MIC [9, 29]: 31.2 µg/mL (≈ 52.1 µM)
- MIC [10]: > 50 µg/mL
- MIC (Mucor spinescens IAM Mu3): > 50 µg/mL
- MIC (Phricularia oryzae): 6.25 µg/mL (≈ 10.4 µM)
- MIC [11]: 0.19 µg/mL (≈ 0.317 µM)
- MIC [12]: 0.19 µg/mL (≈ 0.317 µM)
- MIC [13]: 6.25 µg/mL (≈ 10.4 µM)
- MIC [14]: 6.25 µg/mL (≈ 10.4 µM)
- MIC [15]: 1.56 µg/mL (≈ 2.61 µM)
- MIC (Botrytis cinerea): 12.5 µg/mL (≈ 20.9 µM)
- MIC [16]: 0.19 µg/mL (≈ 0.317 µM)
- MIC (Diaporithe citri): 0.78 µg/mL (≈ 1.3 µM)
- MIC (Erwinia carotovora): > 50 µg/mL
- MIC [17]: 12.5 µg/mL (≈ 20.9 µM)
- MIC ([18]; Shigella sonnei EW 33 Type I): 6.25 µg/mL (≈ 10.4 µM)
- MIC [19]: 50 µg/mL (≈ 83.5 µM)
- MIC (Candida alubicans GA-24): 0.39 µg/mL (≈ 0.651 µM)
- MIC [20]: 6.25 µg/mL (≈ 10.4 µM)
- MIC [21]: 6.25 µg/mL (≈ 10.4 µM)
- MIC [22]: 1.56 µg/mL (≈ 2.61 µM)
- MIC (Alternaria kikuchiana): 6.25 µg/mL (≈ 10.4 µM)
- MIC ([23]; Staphylococcus aureus, 209P): 31.2 µg/mL (≈ 52.1 µM)
- MIC (Proteus vulgaris OX-19): 6.25 µg/mL (≈ 10.4 µM)
- MIC [24]: > 50 µg/mL
- MIC [25]: 6.25 µg/mL (≈ 10.4 µM)
- MIC (Pellicularia filamentosa): > 50 µg/mL
- MIC (Gibberella fujikuroi): 3.12 µg/mL (≈ 5.21 µM)
- Therapeutic Effect: Desquamation [26]: effective
- Therapeutic Effect: Thickening [26]: effective
- MIC [27]: > 50 µg/mL
- MIC (Glomerella cingulata): 1.56 µg/mL (≈ 2.61 µM)

SMILES: O=[N+]([O-])c1cc(Cl)n(CC(I)=C(I)I)c1 [1-(2',3',3'-triiodoallyl)-2-chloro-4-nitropyrrole]
- MIC [1]: 0.78 µg/mL (≈ 1.38 µM)
- MIC [2]: 1.56 µg/mL (≈ 2.76 µM)
- MIC [4]: 1.56 µg/mL (≈ 2.76 µM)
- MIC [5]: 12.5 µg/mL (≈ 22.2 µM)
- MIC [6]: 0.2 µg/mL (≈ 0.354 µM)
- MIC [7]: 6.25 µg/mL (≈ 11.1 µM)
- MIC [8]: 0.39 µg/mL (≈ 0.691 µM)
- MIC [9, 29]: 6.25 µg/mL (≈ 11.1 µM)
- MIC (Mucor spinescens IAM Mu3): 3.13 µg/mL (≈ 5.55 µM)
- MIC [14]: 12.5 µg/mL (≈ 22.2 µM)
- MIC [17]: 12.5 µg/mL (≈ 22.2 µM)
- MIC ([18]; Shigella sonnei EW 33 Type I): 12.5 µg/mL (≈ 22.2 µM)
- MIC [19]: 3.13 µg/mL (≈ 5.55 µM)
- MIC [20]: 1.56 µg/mL (≈ 2.76 µM)
- MIC ([23]; Staphylococcus aureus, 209P): 6.25 µg/mL (≈ 11.1 µM)
- MIC (Proteus vulgaris OX-19): 12.5 µg/mL (≈ 22.2 µM)
- MIC [25]: 6.25 µg/mL (≈ 11.1 µM)

SMILES: O=[N+]([O-])c1nccn1CC(I)=C(I)I [1-(2',3',3'-triiodoallyl)-2-nitroimidazole]
- MIC [1]: 6.25 µg/mL (≈ 11.8 µM)
- MIC [2]: 0.78 µg/mL (≈ 1.47 µM)
- MIC [4]: 3.13 µg/mL (≈ 5.9 µM)
- MIC (Cochliobolus miyabeanus): 0.78 µg/mL (≈ 1.47 µM)
- MIC [6]: 0.39 µg/mL (≈ 0.735 µM)
- MIC [8]: 1.56 µg/mL (≈ 2.94 µM)
- MIC ([9]; ATCC14990, Staphylococcus epidermidis ATCC 14990, read-out: Minimal Inhibitory Conc. (MIC)): 12.5 µg/mL (≈ 23.5 µM)
- MIC [10]: 25 µg/mL (≈ 47.1 µM)
- MIC (Mucor spinescens IAM Mu3): 6.25 µg/mL (≈ 11.8 µM)
- MIC [11]: 0.78 µg/mL (≈ 1.47 µM)
- MIC [12]: 0.78 µg/mL (≈ 1.47 µM)
- MIC ([13]; Corynebacterium michiganense): 3.13 µg/mL (≈ 5.9 µM)
- MIC [14]: 3.12 µg/mL (≈ 5.88 µM)
- MIC [15]: 1.56 µg/mL (≈ 2.94 µM)
- MIC (Botrytis cinerea): 0.19 µg/mL (≈ 0.358 µM)
- MIC [16]: 25 µg/mL (≈ 47.1 µM)
- MIC (Diaporithe citri): 1.56 µg/mL (≈ 2.94 µM)
- MIC (Erwinia carotovora): 12.5 µg/mL (≈ 23.5 µM)
- MIC [28]: 6.25 µg/mL (≈ 11.8 µM)
- MIC ([18]; Shigella sonnei): 3.12 µg/mL (≈ 5.88 µM)
- MIC [19]: 1.56 µg/mL (≈ 2.94 µM)
- MIC (Candida alubicans GA-24): 0.78 µg/mL (≈ 1.47 µM)
- MIC [20]: 3.13 µg/mL (≈ 5.9 µM)
- MIC [21]: 1.56 µg/mL (≈ 2.94 µM)
- MIC [22]: 0.78 µg/mL (≈ 1.47 µM)
- MIC (Alternaria kikuchiana): 0.78 µg/mL (≈ 1.47 µM)
- MIC ([23]; Staphylococcus aureus 209P JC-1): 12.5 µg/mL (≈ 23.5 µM)
- MIC (Proteus vulgaris OX-19): 6.25 µg/mL (≈ 11.8 µM)
- MIC [24]: 12.5 µg/mL (≈ 23.5 µM)
- MIC [25]: 6.25 µg/mL (≈ 11.8 µM)
- MIC (Pellicularia filamentosa): 25 µg/mL (≈ 47.1 µM)
- MIC (Gibberella fujikuroi): 0.78 µg/mL (≈ 1.47 µM)
- MIC [27]: 12.5 µg/mL (≈ 23.5 µM)
- MIC (Glomerella cingulata): 0.78 µg/mL (≈ 1.47 µM)
